Experimental data published in patent US10526343B2, “Heterocyclic systems and pharmaceutical applications thereof” (University of Sharjah, priority 2018, dated 2020).

Legend:
MRSA-1 = experiment: Examination of bacterial cell walls by atomic force microscope (AFM); assay type: cell-based, Staphylococcus aureus; settings: MRSA-1, 25 μg/mL, 4 hours
Description: Atomic force microscopy (AFM) provides three-dimensional images of the surfaces of living microbial cells in real time and in high resolution with minimal sample preparation. Compound 1o was tested against the bacterial strain MRSA-1 and the slides were examined under AFM. Specifically, FIGS. 5A1 and 5B1 show an untreated MRSA-1 strain at scan sizes of 10 μm^2 and […], respectively, and FIGS. 5A2 and 5B2 show a MRSA-1 strain treated with compound 1o at scan sizes of 10 μm^2 and 5 μm^2, respectively. […] Rapid bacterial killing coupled with cell wall damage as evidenced in the AFM images indicate the action of compound 1o on the cell wall, as reported for the known antibiotics like polymyxin, which rapidly breaks the cell membrane of Gram-negative bacteria, causing fast cell death.
Compound 1o was tested against the bacterial strain MRSA-1. Exponentially growing bacterial cells were prepared in Mueller-Hinton broth at a concentration of approximately 10^8 CFU/mL by adjusting the turbidity to 0.5 with a McFarland™ densitometer (DEN-1B, Grant-Bio, UK). […]

[1] = system: Enterococcus faecalis (ATCC 29212); experiment: Cell viability assay (resazurin) screening for antibacterial activity; assay type: cell-based; parameters: key: Positive: A positive result indicates antibacterial activity expressed as growth inhibition; Negative: a negative result indicates no antibacterial activity expressed as bacterial growth at the tested concentration; settings: single high concentration of 1 mg/mL
[2] = system: MRSA-2 (clinical isolate, methicillin-resistant Staphylococcus aureus); experiment: MIC by broth microdilution; assay type: cell-based
Description: (§1) Bacteria of the genus Staphylococcus were selected for MIC investigation due to its clinical importance.
(§2) A broth microdilution method was used to measure MIC according to the Clinical and Laboratory Standards Institute guidelines. Two-fold serial dilutions of the test compound (8 concentrations ranged between 100-0.78 μg/mL) were tested. […] In each experiment, solvent (DMSO) was used as a negative control, un-treated control (composing of bacteria in Mueller-Hinton broth) was used as a growth control, blank (culture media alone) was used as sterility control. The 96-well microplate with the test compounds was incubated for 20 hours at 37° C. Turbidity in wells indicated bacterial growth. […] For the definite determination of MIC, CellTiter-Blue® Cell Viability Assay (Promega, USA) was used (as above). The MIC was defined as the lowest compound concentration that prevented the color change of the Cell Viability solution (absence of bacterial growth; thus, suspension remained blue in color). For the definite determination of MIC, CellTiter-Blue® Cell Viability Assay (Promega, USA) was used (as above). To each well of the 96-well microplate, 20 μL of the Cell Viability Assay solution was added to the overnight (20 hours culture) and incubated at 37° C. for 4 hours. After the end of the incubation, pink and blue colors were used to differentiate viable from dead bacterial suspensions, respectively. The MIC was defined as the lowest compound concentration that prevented the color change.

[3] = system: MRSA-3 (clinical isolate, methicillin-resistant Staphylococcus aureus); experiment: MIC by broth microdilution; assay type: cell-based
Description: as §1, §2

[4] = system: MRSA-1 (clinical isolate, methicillin-resistant Staphylococcus aureus); experiment: MIC by broth microdilution; assay type: cell-based
Description: as §1, §2

- MIC [2]: 3.12 µg/mL
- MIC [3]: 3.12 µg/mL
- times lower than the MIC of ciprofloxacin ([4]; MRSA-1): approximately 10 times
- MIC ([4]; Staphylococcus aureus, MRSA, clinical isolate): 3.12 µg/mL
SMILES: COC(=O)CC1COc2c(cc3c4c2CCCN4CCC3)-c2c(NC(C)(C)C)n3c(-c4ccc(Br)cc4)c(C)sc3[n+]21 (stereo not drawn) [Compound 1o]
- bacterial cell morphology under AFM (MRSA-1): Bacterial cell shape distortion and leakage of the intracellular contents
- antibacterial activity, Enterococcus faecalis [1]: Positive
